Assay results taken from US12673924B2, “Valiolamine derivatives as glucosidase inhibitors” (Emergent Product Development Gaithersburg Inc., priority 2021, dated 2026).

Key:
Assay type in all cases: biochemical
rat maltase = experiment: Intestinal alpha-glucosidase assay, maltose substrate; details: alpha-glucosidase from intestinal rat powder
Procedure: (§1) Intestinal alpha-glucosidases (rat maltase and sucrase): Intestinal alpha-glucosidases act upon 1,4-alpha-glucoside bonds, breaking down disaccharides to glucose. To perform this assay, partially purified alpha-glucosidase from intestinal rat powder was incubated for 60 minutes at 37° C. with multiple dilutions of test compounds. Maltose or Sucrose respectively was then introduced as substrate to the mixture and incubated for 30 minutes at 37° C. The reaction was stopped by a 5-minute incubation at 90° C. and the resultant glucose production is detected using Sigma's Glucose GO Kit. Percent inhibition was then plotted as a function of concentration for each test compound. The IC50 was determined using a 4-PL curve fit and serves as the measure of relative inhibition of each test compound (see Table 4). Table 4 summarizes the results of IC50s for each molecule against each tested glucosidase enzyme.

rat sucrase = molecular target: T1, rat sucrase (Rattus norvegicus, UniProt P23739); experiment: Intestinal alpha-glucosidase assay, sucrose substrate; details: alpha-glucosidase from intestinal rat powder
T1 construct: partially purified alpha-glucosidase from intestinal rat powder; from tissue; host or cells: rat intestinal powder
Procedure: as §1

recombinant human GBA = molecular target: T2, recombinant human GBA (Homo sapiens, UniProt P04062); experiment: Beta-glucocerebrosidase (GBA) inhibition assay; details: 4-methylumbelliferyl-beta-D-pyranoside substrate, 4-PL curve fit
T2 construct: purchased
T2 sequence (P04062 40-536): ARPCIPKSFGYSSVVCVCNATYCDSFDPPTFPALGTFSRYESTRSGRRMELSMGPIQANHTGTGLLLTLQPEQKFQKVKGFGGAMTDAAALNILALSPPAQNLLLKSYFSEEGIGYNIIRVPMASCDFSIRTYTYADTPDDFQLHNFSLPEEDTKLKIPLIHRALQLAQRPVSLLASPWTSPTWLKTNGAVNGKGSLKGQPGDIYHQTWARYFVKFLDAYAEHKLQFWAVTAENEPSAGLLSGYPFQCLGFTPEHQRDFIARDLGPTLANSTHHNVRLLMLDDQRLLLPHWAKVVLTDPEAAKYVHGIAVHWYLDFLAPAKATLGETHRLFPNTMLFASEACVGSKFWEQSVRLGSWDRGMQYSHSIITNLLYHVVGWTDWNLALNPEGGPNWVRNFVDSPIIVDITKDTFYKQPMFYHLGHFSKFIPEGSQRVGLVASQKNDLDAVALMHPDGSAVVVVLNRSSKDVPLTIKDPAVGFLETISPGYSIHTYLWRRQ
Procedure: Beta-glucocerebrosidase (GBA, also referred to glucosylceramidase): To analyze inhibitory effects of a test compound, commercially available recombinant human GBA was incubated with multiple dilutions of test compound for 60 minutes at 37° C. 4-methylumbelliferyl-beta-D-pyranoside was then introduced to the mixture as substrate. Following incubation for 60 minutes at 37° C., 1,4-methyllumbelliferone was generated, and the reaction was stopped with the stop solution (0.5 M glycine; 0.3 M NaOH, pH 10). 1,4-methyllumbelliferone was detected by fluorescence (excitation at 365 nm, emission at 440 nm). Relative fluorescence is compared to untreated enzymatic activity and test compound concentration is then plotted as a function of percent inhibition. The IC50 was determined using a 4-PL curve fit as the measure of relative inhibitory activity of each test compound (see Table 4).

T1 sequence (P23739 whole entry): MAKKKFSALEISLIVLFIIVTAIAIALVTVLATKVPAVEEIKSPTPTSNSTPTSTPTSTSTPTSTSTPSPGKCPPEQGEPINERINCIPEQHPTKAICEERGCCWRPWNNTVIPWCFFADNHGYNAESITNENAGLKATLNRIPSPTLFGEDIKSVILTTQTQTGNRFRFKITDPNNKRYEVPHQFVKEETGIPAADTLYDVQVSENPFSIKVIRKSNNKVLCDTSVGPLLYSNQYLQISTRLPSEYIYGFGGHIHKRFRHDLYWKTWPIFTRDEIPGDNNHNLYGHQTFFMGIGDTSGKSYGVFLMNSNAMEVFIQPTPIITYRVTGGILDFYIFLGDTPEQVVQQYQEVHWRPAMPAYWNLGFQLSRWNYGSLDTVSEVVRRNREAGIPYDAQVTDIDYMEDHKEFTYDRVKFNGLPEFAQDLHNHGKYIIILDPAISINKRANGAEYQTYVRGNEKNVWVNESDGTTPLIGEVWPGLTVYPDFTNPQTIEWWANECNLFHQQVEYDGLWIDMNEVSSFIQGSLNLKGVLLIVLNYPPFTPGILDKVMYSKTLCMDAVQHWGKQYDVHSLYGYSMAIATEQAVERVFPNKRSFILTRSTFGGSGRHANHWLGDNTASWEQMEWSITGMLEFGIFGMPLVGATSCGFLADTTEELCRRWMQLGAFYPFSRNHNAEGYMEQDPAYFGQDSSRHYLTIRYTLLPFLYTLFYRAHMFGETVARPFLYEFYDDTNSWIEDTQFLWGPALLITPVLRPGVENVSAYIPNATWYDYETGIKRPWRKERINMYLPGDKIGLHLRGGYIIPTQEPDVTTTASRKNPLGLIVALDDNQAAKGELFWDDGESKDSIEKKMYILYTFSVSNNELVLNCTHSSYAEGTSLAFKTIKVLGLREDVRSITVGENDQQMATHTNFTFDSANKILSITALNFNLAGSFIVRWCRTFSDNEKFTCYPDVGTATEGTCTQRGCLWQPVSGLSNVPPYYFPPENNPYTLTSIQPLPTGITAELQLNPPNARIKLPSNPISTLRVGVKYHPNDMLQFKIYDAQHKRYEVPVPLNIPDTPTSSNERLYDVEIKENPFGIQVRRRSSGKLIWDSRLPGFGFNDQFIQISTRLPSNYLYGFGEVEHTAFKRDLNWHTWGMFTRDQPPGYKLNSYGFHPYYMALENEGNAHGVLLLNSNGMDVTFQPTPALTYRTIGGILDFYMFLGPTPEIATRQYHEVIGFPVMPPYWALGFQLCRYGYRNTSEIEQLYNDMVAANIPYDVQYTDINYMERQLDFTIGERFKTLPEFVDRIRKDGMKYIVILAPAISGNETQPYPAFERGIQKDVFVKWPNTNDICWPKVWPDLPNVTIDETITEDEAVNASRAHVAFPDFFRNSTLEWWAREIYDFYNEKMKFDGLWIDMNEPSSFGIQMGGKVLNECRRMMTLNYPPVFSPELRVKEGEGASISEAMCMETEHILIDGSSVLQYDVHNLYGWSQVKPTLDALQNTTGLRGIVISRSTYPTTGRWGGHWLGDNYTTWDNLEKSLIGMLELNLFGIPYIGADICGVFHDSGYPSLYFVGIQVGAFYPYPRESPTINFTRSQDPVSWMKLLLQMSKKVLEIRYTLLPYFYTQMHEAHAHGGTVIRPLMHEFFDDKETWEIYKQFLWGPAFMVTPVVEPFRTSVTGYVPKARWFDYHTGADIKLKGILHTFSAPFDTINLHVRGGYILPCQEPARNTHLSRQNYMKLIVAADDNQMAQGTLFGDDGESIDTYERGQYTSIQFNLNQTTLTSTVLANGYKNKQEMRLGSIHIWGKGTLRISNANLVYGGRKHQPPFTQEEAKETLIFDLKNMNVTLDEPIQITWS

- IC50 (rat maltase): 1.47 µM
- IC50 (rat sucrase): 0.07 µM
- IC50 (recombinant human GBA): > 1000 µM
SMILES: CCCCN[C@H]1C[C@](O)(CO)[C@@H](O)[C@H](O)[C@H]1O [Compound 1, (1S,2S,3R,4S,5S)-5-(butylamino)-1-(hydroxymethyl)cyclohexane-1,2,3,4-tetraol]
